The text below walks through data of paper PMC10452181, “Synthesis and Biological Evaluation of Cyclobutane-Based β3 Integrin Antagonists: A Novel Approach to Targeting Integrins for Cancer Therapy” (Cancers, 2023).

Read-outs that look alike come from different tables or passages of the source.

One data set concerns the target T1, αIIbβ3 (Homo sapiens, UniProt P05106+P08514).
T1 construct: purchased Sigma
Nature of the data set: αIIbβ3/fibrinogen purified protein binding ELISA. The conditions noted are these: for IC50: read-out: IC50 (αIIbβ3/Fg). As for the experimental part:
ELISA assays were performed as previously described with minor modifications. Briefly, serial dilutions of compounds were prepared in dimethyl sulfoxide (DMSO). C8 Maxi Immuno modules (Fisher Scientific) were incubated overnight at 4 °C with 0.5 μg/well of fibrinogen (Sigma) in sterile phosphate buffered saline (PBS, 0.2 g/L KCl, 8.0 g/L NaCl, 0.2 KH2PO4, 1.15 g/L Na2HPO4, pH 7.4). All subsequent wash steps were performed using 25 mM Tris, pH 7.6, 150 mM NaCl, 1 mM MnCl2, 1 mg/mL BSA, and binding/inhibition was carried out in 25 mM Tris, pH 7.6, 150 mM NaCl, 1 mM MnCl2, 1 mM MgCl2, 1 mM CaCl2, 1 mg/mL BSA.
Wells were washed and blocked with a blocking solution (PBS, 0.1% Tween 20, 3% BSA) for 1 h at 37 °C. Compounds were added to the wells at indicated concentrations (final 0.5% DMSO) in the presence of 0.5 µg/well αIIbβ3 (Sigma) and incubated at room temp for 1 h. After 3 washes, primary anti-αIIb (1:200 dilution, Santa Cruz Biotech, Heidelberg, Germany) and antigoat–HRP (1:500 dilution, Dako, Agilent, Santa Clara, CA, USA) were added at room temp for 1 h. The wells were washed and incubated with 0.1 mg/mL tetra-methylbenzidine (Sigma) for 25 min and the reaction was stopped with 1N H2SO4 (100 μL/well). The absorbance was measured at 450 nm using a Multiscan Spectrum reader (Thermo Scientific, Thermofisher, UK) and SkanIT RE (v2.4.4.5) software. Results were plotted as percent binding vs. log concentration and IC50 values determined.
(In general: An ELISA detects its analyte on a solid surface through an enzyme-linked reagent.)

Another data set deals with platelet aggregation. The data set is described as follows: ADP-induced platelet aggregation in hirudin-treated whole blood (ex vivo). It counts as cell-based, human. The conditions noted are these: for % Inhibition (Platelet Aggregation) @ 100 μM: ADP 6.4 μM. As for the experimental part:
2.7. Platelet Aggregation Assay
Platelet aggregation was measured in hirudin-anticoagulated whole blood from a healthy donor with ADP as agonist (end concentration 6.4 μM) using a Multiplate® impedance aggregometer (Dynabyte Informationssysteme GmbH, Munich, Germany). At 37 °C, cells were charged with 300 μL of saline, 300 μL of blood, 1 μL of compound (0.1% DMSO) and incubated for 3 min. The agonist was added and the increase in electrical impedance measured from 2 electrode pairs/cell for 6 min, transformed into arbitrary units (AU), and the area under the curve was calculated.

The target of a further data set is T2, αvβ3 (Homo sapiens, UniProt P05106+P06756).
T2 construct: endogenous in cells; host or cells: SK-Mel-2 melanoma cells
The data set is described as follows: Sk-Mel-2 cell adhesion to immobilised fibronectin (cell-binding assay, MTT readout). It counts as cell-based. The following applies: Sk-Mel-2 adhesion to Fn, mean ± SD. As for the experimental part:
First, 96-well plates (Corning, VWR) were coated overnight at 4 °C with 0.5 μg/well fibronectin (Sigma). SK-Mel-2 cells were trypsinised, washed and resuspended in RPMI medium only at 10^5 cells/mL. Cells (100 µL/well) were treated with compound (DMSO final concentration 0.1%) at the indicated concentration for 4 hrs on a rotary shaker. Plates were washed (3 × PBS) and blocked with PBS/5% BSA for 2 hrs at 37 °C prior to adding the cells. Cells were incubated on the plates at 37 °C in a humidified chamber with 5% CO2 for 1 hr. The plates were washed 3× with PBS and a 200 µL/well RPMI medium containing 10% FCS added. The plates were incubated overnight at 37 °C as above. Finally, 0.5 mg/mL of 3-(4,5-dimethythiazol-2-yl)-2,5-diphenyl tetrazolium bromide (MTT) was added to each well and the plates incubated for a further 4 h. The medium was removed, and the insoluble formazan dissolved in 150 µL of DMSO. Absorbance was measured at 540 nm using a Thermo Multiskan EX (Thermofisher, UK)and Ascent Software (v2.6). Total binding was determined based on controls lacking any compounds (100% binding) in fibronectin-coated wells and uncoated wells blocked with BSA (0% binding) and corrected for background (no cells, fibronectin-coated).
As an initial test of anti-β3 activity, the ability of compounds to inhibit the adhesion of melanoma cells expressing high levels of αvβ3 and low levels of other RGD-binding integrins such as αvβ5 and α5β1 to immobilised fibronectin was evaluated.
Cells were seeded onto precoated plates in the presence or absence of putative antagonists and the number of adherent cells quantified colorimetrically.

Another data set relates to M14 cells. Nature of the data set: cells. It is filed as cell-based, human. The conditions noted are these: M14 scratch wound, 24 h, mean ± SD; read-out: Migration IC50. As for the experimental part: M14 cells (4 × 10^5/mL in RPMI 1640 medium) were seeded in six-well plates and incubated at 37 °C in a 5% CO2 humidified atmosphere for 48 h. The resulting confluent monolayer was scratched with a sterile P200 pipette tip to create a gap (approximately 2 cm in length and 650 μm in width) in the centre of the well. The medium was removed, and the cells washed with Hank’s balanced salt solution (HBSS) (1 mL) and replaced with a medium containing the test antagonist. After 24 h, the cells were washed twice with HBSS and fixed with ice-pre-cooled methanol for thirty minutes at −20 °C. Following hydration with two washes in PBS, the monolayers were counterstained with Harris’s haematoxylin solution for two minutes, then washed in tap water for one minute and left to dry at room temperature. The plates were observed using an inverted microscope, and digital images captured.
The anti-αvβ3 activity of selected compounds was confirmed in a wound-healing assay (Figure 3). A number of cell lines were initially investigated for their suitability in this assay. The Sk-Mel-2 cell line which adhered well to fibronectin in the adhesion assay migrated very slowly; therefore, M14 melanoma cells which combined high levels of αvβ3 with rapid migration and low levels of proliferation over the assay period (Supplementary Figure S4) were selected.

In another data set the test system is Sk-Mel-2. Nature of the data set: in vitro. It counts as cell-based, human. As for the experimental part:
(§1) Before use in cell-based assays of integrin function, the effect of compounds on cell proliferation was tested using the MTT assay to avoid adhesion results being confounded by cell death (Supplementary Table S1). The effect of compounds on cell adhesion was then initially tested at a single, nontoxic concentration to identify active antagonists for further characterisation; those displaying a promising activity in the adhesion assay were tested at a wider range of concentrations to determine the IC50 (Table 2). […] Nevertheless, it is a cost-effective initial screening method. page 4: Table S1. Cytotoxicity of compounds on the cell lines used in the functional assays (measured by MTT assay). Cells (2000 cells/well for Sk-Mel-2; 1 x 10^4 cells/mL for M14) were incubated for 96 hours at 37 ° C in a total volume of 200 μL/well (180 μL medium + 20 μ L test compound solution). After 96 hours, the medium was replaced by fresh medium containing 0.5 mg/ml (end conc.) MTT per well, incubated for 4 h then the plate processed and read as described in the main text. […] ICT9053 41 naphthyridine 1 NHSO2Mes H Ester 52.6 ± 0.6 72.7 ± 9.8 ICT9065 42 naphthyridine 1 H H Ester >100 - ICT9079 43 naphthyridine 0 NHSO2Mes H Ester ~100 - ICT9061 44 naphthyridineT 1 NHSO2Mes H Ester 46.8 ± 10.7 - […] Ester 65.4 ± 11.1 >100 […] Ester 9.6 ± 5.7 >100 […] Ester >100 - […] Ester 54.6 ± 11.0 - […] Ester >5 3.3 ± 0.8 […] ICT9028 51 pyrimidine 2 NHSO2Ph H Acid >100 - ICT9031 52 pyrimidineT 1 NHSO2Mes H Acid >100 - ICT9090 53 pyrimidineT 2 NHSO2Mes H Acid >50 - ICT9029 54 pyrimidineT 2 NHSO2Ph H Acid >100 - ICT9063 55 naphthyridine 1 NHSO2Mes H Acid 61.7 ± 2.8 - […] Acid 45.5 ± 7.9 >100 […] 42.5 ± 1.8 >50 RGDS >50 - T trans configuration of cyclobutane sidechains.

The test system of the next data set is M14. Nature of the data set: Cytotoxicity by MTT assay, 96 h, M14. The following applies: MTT, 96 hours. It counts as cell-based, human. On the procedure:
as §1
A general note: Tetrazolium assays rely on reduction of a dye to a coloured formazan, in cell work by metabolically active cells.

T1 sequence (P08514 32-887 limits assumed): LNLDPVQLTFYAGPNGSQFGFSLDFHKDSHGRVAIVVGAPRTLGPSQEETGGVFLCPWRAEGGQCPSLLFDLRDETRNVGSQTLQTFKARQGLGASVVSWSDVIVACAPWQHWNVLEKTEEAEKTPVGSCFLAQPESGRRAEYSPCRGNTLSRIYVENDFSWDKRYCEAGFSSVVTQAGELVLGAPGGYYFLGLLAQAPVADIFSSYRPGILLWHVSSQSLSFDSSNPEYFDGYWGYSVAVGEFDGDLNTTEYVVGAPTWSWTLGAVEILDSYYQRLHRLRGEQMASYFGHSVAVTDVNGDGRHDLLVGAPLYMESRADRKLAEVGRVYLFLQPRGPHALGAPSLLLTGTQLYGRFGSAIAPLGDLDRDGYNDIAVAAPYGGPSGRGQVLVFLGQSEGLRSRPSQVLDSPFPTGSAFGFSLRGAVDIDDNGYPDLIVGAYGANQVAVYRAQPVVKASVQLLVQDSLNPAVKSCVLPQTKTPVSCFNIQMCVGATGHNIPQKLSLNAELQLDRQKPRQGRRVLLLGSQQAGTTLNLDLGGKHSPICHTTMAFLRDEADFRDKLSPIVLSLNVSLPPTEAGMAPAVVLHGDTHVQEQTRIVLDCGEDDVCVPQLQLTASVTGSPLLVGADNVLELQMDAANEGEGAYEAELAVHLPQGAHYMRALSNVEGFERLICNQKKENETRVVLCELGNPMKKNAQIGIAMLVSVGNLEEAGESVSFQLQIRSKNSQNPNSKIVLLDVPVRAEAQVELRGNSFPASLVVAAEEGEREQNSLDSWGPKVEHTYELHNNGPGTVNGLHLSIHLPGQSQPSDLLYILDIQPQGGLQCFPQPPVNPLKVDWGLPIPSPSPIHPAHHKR
T1 sequence (P08514 891-1039 partner limits assumed): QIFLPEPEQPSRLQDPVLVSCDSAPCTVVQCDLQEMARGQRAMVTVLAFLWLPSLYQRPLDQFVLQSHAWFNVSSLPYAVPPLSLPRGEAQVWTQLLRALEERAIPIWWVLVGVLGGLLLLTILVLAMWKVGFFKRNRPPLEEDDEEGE
T1 sequence (P05106 27-788): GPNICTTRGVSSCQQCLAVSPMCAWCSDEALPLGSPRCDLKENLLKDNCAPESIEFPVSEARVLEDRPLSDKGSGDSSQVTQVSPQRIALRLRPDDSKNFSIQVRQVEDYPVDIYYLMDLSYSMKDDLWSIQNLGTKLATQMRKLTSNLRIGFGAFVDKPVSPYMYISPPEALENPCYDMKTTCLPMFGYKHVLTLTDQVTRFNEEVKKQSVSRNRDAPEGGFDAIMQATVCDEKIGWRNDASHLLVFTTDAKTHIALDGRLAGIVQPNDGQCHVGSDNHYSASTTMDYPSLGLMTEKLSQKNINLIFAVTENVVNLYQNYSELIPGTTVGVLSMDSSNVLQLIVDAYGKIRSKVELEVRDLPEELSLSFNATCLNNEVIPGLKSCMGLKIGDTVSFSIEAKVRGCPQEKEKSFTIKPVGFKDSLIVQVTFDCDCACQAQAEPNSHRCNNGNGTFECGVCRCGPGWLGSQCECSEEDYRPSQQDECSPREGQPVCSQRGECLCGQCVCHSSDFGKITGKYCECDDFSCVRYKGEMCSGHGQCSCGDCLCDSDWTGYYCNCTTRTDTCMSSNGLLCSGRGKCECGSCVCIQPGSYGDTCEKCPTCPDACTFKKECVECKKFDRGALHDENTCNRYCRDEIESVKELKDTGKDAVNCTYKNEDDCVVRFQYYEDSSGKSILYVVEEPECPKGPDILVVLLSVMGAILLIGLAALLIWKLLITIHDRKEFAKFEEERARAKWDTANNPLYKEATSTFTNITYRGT
T2 sequence (P06756 31-889 limits assumed): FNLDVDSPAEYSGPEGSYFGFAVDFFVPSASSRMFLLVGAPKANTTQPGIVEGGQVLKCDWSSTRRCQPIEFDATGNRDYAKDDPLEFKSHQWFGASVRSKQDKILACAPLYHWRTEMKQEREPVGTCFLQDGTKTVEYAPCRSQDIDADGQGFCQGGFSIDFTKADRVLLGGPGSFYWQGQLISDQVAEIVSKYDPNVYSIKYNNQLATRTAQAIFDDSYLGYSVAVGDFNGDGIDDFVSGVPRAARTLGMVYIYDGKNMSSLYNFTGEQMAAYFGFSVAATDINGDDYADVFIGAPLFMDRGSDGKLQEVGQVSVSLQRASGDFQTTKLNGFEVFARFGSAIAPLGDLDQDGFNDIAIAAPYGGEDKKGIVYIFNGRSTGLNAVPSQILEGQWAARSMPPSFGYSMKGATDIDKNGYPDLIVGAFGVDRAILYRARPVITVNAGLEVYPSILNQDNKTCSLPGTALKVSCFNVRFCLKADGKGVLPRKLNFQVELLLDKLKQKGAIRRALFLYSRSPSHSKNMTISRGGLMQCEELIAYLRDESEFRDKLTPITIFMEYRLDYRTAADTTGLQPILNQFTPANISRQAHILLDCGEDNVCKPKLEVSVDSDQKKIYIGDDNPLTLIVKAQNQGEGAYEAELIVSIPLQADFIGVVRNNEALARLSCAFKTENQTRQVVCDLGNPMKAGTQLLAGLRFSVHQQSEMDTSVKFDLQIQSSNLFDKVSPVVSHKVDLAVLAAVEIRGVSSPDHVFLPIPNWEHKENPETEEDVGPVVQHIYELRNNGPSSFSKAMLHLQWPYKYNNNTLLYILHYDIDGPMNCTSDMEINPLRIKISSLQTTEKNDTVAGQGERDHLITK
T2 sequence (P06756 891-1048 partner limits assumed): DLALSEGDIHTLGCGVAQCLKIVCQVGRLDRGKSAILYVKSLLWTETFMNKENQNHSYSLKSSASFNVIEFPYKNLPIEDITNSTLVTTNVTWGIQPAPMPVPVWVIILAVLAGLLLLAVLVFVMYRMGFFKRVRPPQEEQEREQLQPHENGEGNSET
T2 sequence (P05106 27-788): as the sequence (P05106 27-788) above

Turning to `Cl.Cl.Cl.N=C(N)c1ccc(N2CCN(C3CCN(CC(=O)O)CC3)CC2)cc1` [GR144053, reference compound], the IC50 on αIIbβ3 (positive control) was determined as 0.0237 ± 0.0031 µM; in the data set with platelet aggregation (ADP-induced), 0.24 µM. In the data set with platelet aggregation, the “% Inhibition (Platelet Aggregation) @ 100 μM” value was 100%.

Consider `COC(=O)[C@H](CNC(=O)C1CC(CCNc2ncccn2)C1)NS(=O)(=O)c1c(C)cc(C)cc1C` (stereo partly drawn) [ICT9019 21, (S)-Methyl 3-((1s,3r)-3-(2-(pyrimidin-2-ylamino)ethyl)cyclobutanecarboxamido)-2-(2,4,6-trimethylphenylsulfonamido)propanoate], for which, on αvβ3, the “Adhesion % Inhibition @ 5 μM” value stood at 35.2 ± 19.1%. Besides, the “Adhesion % Inhibition @ 50 μM” value at αvβ3 is 48.3 ± 4.1%. For the same compound, the IC50 at αvβ3 was 50 ± 5 µM; in the data set with M14 cells, 9.5 ± 0.9 µM; with Sk-Mel-2, 53.8 ± 3.2 µM; in the data set on M14 it was more than 100 µM. Also, the “% Inhibition (αIIbβ3/Fg) @ 50 μM” value at αIIbβ3 (mean ± SD) was 15.6 ± 14.5%.

On to `Cc1cc(C)c(S(=O)(=O)N[C@@H](CNC(=O)C2CC(CCNc3ncccn3)C2)C(=O)O)c(C)c1` (stereo partly drawn) [ICT9031 52, (S)-3-((1r,3s)-3-(2-(pyrimidin-2-ylamino)ethyl)cyclobutanecarboxamido)-2-(2,4,6-trimethylphenylsulfonamido)propanoic acid], for which, on αvβ3, the “Adhesion % Inhibition @ 50 μM” value is 11.1 ± 2.4% and the IC50 was more than 50 µM. Also, on αIIbβ3 (mean ± SD), the “% Inhibition (αIIbβ3/Fg) @ 50 μM” value amounted to 96.2 ± 6.3% and the IC50 turned out to be 1.7 ± 2.4 µM. Moreover, in the data set on platelet aggregation, the “% Inhibition (Platelet Aggregation) @ 100 μM” value is given as 11.1%. The compound further came in with an IC50 in the data set on Sk-Mel-2 of more than 100 µM.

Take `COC(=O)[C@H](CNC(=O)[C@H]1C[C@H](CCc2ccc3cccnc3n2)C1)NS(=O)(=O)c1c(C)cc(C)cc1C` [ICT9053 41, (S)-methyl 3-((1r,3r)-3-(2-(1,8-naphthyridin-2-yl)ethyl)cyclobutanecarboxamido)-2-(2,4,6-trimethylphenylsulfonamido)propanoate]: the “Adhesion % Inhibition @ 5 μM” value on αvβ3 was 27.5 ± 32.9%. The IC50 was more than 5 µM at αvβ3; more than 10 µM in the data set on M14 cells; more than 100 µM on αIIbβ3 (mean ± SD); 52.6 ± 0.6 µM with Sk-Mel-2; 72.7 ± 9.8 µM in the data set on M14. Further, the “% Inhibition (αIIbβ3/Fg) @ 50 μM” value on αIIbβ3 (mean ± SD) came out at 29.4 ± 17.6%.

As for `COC(=O)[C@H](CNC(=O)[C@H]1C[C@H](CCc2ccc3c(n2)NCCC3)C1)NS(=O)(=O)c1c(C)cc(C)cc1C` [ICT9055 46, (S)-methyl 3-((1r,3r)-3-(2-(5,6,7,8-tetrahydro-1,8-naphthyridin-2-yl)ethyl)cyclobutanecarboxamido)-2-(2,4,6-trimethylphenylsulfonamido)propanoate], the “Adhesion % Inhibition @ 5 μM” value on αvβ3 came out at 98.4 ± 1.9%. Moreover, the IC50 at αvβ3 is 0.34 ± 0.33 µM; with M14 cells it was less than 0.1 µM; on αIIbβ3 (mean ± SD), more than 50 µM; with Sk-Mel-2, 9.6 ± 5.7 µM; with M14, more than 100 µM. For the same compound, the “% Inhibition (αIIbβ3/Fg) @ 50 μM” value at αIIbβ3 (mean ± SD) is on record as 0 ± 9.8%. In addition, the “% Inhibition (Platelet Aggregation) @ 100 μM” value in the data set on platelet aggregation was determined as 5.6%.

On to `COC(=O)[C@H](CNC(=O)[C@H]1C[C@@H](CCc2ccc3c(n2)NCCC3)C1)NS(=O)(=O)c1c(C)cc(C)cc1C` [ICT9062 49, (S)-methyl 3-((1s,3s)-3-(2-(5,6,7,8-tetrahydro-1,8-naphthyridin-2-yl)ethyl)cyclobutanecarboxamido)-2-(2,4,6-trimethylphenylsulfonamido)propanoate], for which the “Adhesion % Inhibition @ 5 μM” value at αvβ3 worked out at 72.3 ± 9.4%. Moreover, the IC50 is 0.15 ± 0.03 µM with M14 cells, more than 5 µM in the data set on Sk-Mel-2 and 3.3 ± 0.8 µM with M14.

`Cc1cc(C)c(S(=O)(=O)N[C@@H](CNC(=O)C2CC(CCc3ccc4cccnc4n3)C2)C(=O)O)c(C)c1` (stereo partly drawn) [ICT9063 55, (S)-3-{(1r,3r)-[3-(2-[1, 8] Naphthyridin-2-yl-ethyl)-cyclobutanecarbonyl]-amino}-2-(2,4,6-trimethyl-benzenesulfonylamino)-propionic acid]: the “Adhesion % Inhibition @ 5 μM” value at αvβ3 came to 20.7 ± 11.9%. Moreover, the figures for the IC50 on αvβ3, on αIIbβ3 (mean ± SD) and in the data set with Sk-Mel-2 were more than 5 µM, 4.1 ± 2.2 µM and 61.7 ± 2.8 µM, respectively. Further, the “% Inhibition (αIIbβ3/Fg) @ 50 μM” value on αIIbβ3 (mean ± SD) was found to be 84.5 ± 8.6%. The “% Inhibition (Platelet Aggregation) @ 100 μM” value in the data set with platelet aggregation worked out at 13.0%.

In the case of `Cc1cc(C)c(S(=O)(=O)N[C@@H](CNC(=O)[C@H]2C[C@@H](CCCNc3ncccn3)C2)C(=O)O)c(C)c1` [ICT9090 53, (S)-3-((1s,3s)-{3-[3-(Pyrimidin-2-ylamino)-propyl]-cyclobutanecarbonyl}-amino)-2-(2,4,6-trimethyl-benzenesulfonylamino)-propionic acid], the “Adhesion % Inhibition @ 50 μM” value on αvβ3 was 68.9 ± 10.9%. Besides, the IC50 on αvβ3 is 11 ± 11.6 µM; on αIIbβ3 (mean ± SD), 0.39 ± 0.19 µM; with Sk-Mel-2, more than 50 µM. Moreover, in the data set with platelet aggregation, the “% Inhibition (Platelet Aggregation) @ 100 μM” value was found to be 21.2 ± 7.8%.
